Results published in patent US20250017215A1, “LIQUID CARRIER CONCENTRATE COMPRISING AT LEAST ONE BENEFICIAL MICROORGANISM AND USES THEREOF” (priority 2021, published 2025).

How the values were obtained:
Beauveria bassiana = assay: Microbial viability of liquid carrier concentrates upon accelerated storage stability study (shelf-life), colony counting; type: cell-based; settings: storage at 25° C. without agitation
Protocol: (§1) Standard procedure for microbial viability assessment of liquid carrier concentrates upon accelerated storage stability study (Shelf-life assessment) In order to evaluate the shelf-life of liquid carrier concentrate of the fungi, the liquid carrier concentrates were prepared by mixing 5 wt % of a commercial product (biopesticide) containing a beneficial microorganism and 95 wt % of the solvent to be tested.
(§2) The commercial products tested were in powder form, and the beneficial microorganisms in the composition were: • Beauveria bassiana, • Paecilomyces lilacinus.
(§3) For comparison, a control experiment without the solvent was prepared. For Beauveria bassiana and Paecilomyces lilacinus, 5 wt % of the powder commercial product was added to 95 wt % soybean oil, 2-ethylhexyl lactate or isoamyl laurate.
(§4) The preparations were incubated under accelerated temperature test conditions, at 25° C. and the viability of the microorganism was evaluated after 0, 15 days, 1 month, 3 months, 6 months, 9 months, 12 months and 14 months of incubation without agitation. Trials were performed in duplicates.
(§5) To confirm that the microorganisms were viable after determined incubation/storage time, traditional serial dilution and plating of the samples for colony counting were performed.
(§6) For fungi evaluation, samples of 0.1 mL were taken from each preparation and added to 0.9 mL of an aqueous solution containing 0.1% of Tween 80 (polyoxyethylene sorbitan monooleate) to obtain a 10^−1 dilution. Then 0.1 mL of this dilution was added to 0.9 mL of the same aqueous solution successively until the most appropriate dilution was obtained (usually between 10-4 and 10-7). 0.2 mL of the most appropriate dilutions were spread into petri dishes containing the proper culture media for each microorganism and incubated (at 25° C. for Beauveria bassiana and Paecilomyces lilacinus), until the colony grew.
(§7) The number of the colonies on each petri dish was counted and the results are expressed by colony forming units (CFU)/mL.
(§8) Shelf-life assessment was done on two different fungi (Beauveria bassiana and Paecilomyces lilacinus) in Augeo SL191 solvent (formula (I), with R1, R2: methyl, and R3: H) and in three other benchmark solvents or oils according to the experimental procedures described above. For each microorganism, isoamyl laurate was tested in a different run series which explains the difference between its initial microorganism concentration (CFU/mL) and the one of the other three solvents. The recurrent colony counting was done at different incubation times: t=0, 15 days, 1 month, then every month until the CFU/mL value of a sample drops by two log 10 scale (>100 times), i.e. a reduction of 99%.

Paecilomyces lilacinus = assay: as above; type: cell-based; settings: storage at 25° C. without agitation
Protocol: as §1, §2, §3, §4, §5, §6, §7, §8

CC1(C)OCC(CO)O1 (stereo not shown) [Augeo SL191, Solketal]
Viability after 14 months (Beauveria bassiana; 14 months): above 1E+06 CFU/mL | Viability after 14 months (Paecilomyces lilacinus; 14 months): above 1E+06 CFU/mL

CCCCC(CC)COC(=O)C(C)O (stereo not shown) [2-ethyl hexyl lactate, 2-ethylhexyl lactate]
Viability after 1 month (Beauveria bassiana; 1 month): less than 1E+05 CFU/mL | Viability after 1 month (Paecilomyces lilacinus; 1 month): less than 1E+05 CFU/mL
